Assay [1] relates to Aorta sections (angiogenesis induced by FGF-2). As to the kind of experiment: Angiogenesis test ex vivo (aorta section), FGF-2 induced sprouting in Matrigel. The conditions noted are these: for Sprouting area (% vs. control): FGF-2 30 ng/ml, eleven days, control = 100%. The class given is cell-based, C57BL/6 mice. The method, then:
Aorta sections (aorta rings of about 1 mm) taken from C57BL/6 mice, are dipped in a Matrigel gel (BD Biosciences), in 96 well plates, in DMEM 5% FCS containing FGF-2 (30 ng/ml) together with the compounds of the invention at concentrations in the range indicated herein below. By using an inverted microscope (IX70; Olympus) after some days it is observed in the plate the formation of a network of capillary structures irradiating from the aorta section. Images were taken and analyzed by ImageJ 1.41. After eleven days from the beginning of the experiment the angiogenic response is quantified as sprouting area, therefore subtracting the area of the aorta section.
The compounds of the examples 2, 4 and 10 and, as a reference, the reference compound sm27 at concentrations comprised between 50 and 100 μM were used. In Table 4 the results are reported, expressed as a percent variation (decrease) of the sprouting area with respect to that of the control (presence of FGF-2 only).
In FIG. 1 the aorta sections are reported, analyzed after eleven days in absence (left photo—(a)) or in the presence (right photo (b)) of the compound obtained in example 10 (concentration 100 μM). […]

Assay [2] concerns BAEC cells. As to the kind of experiment: Inhibition of the proliferation of endothelial cells induced by FGF-2 (Crystal Violet). The class given is cell-based, Bovine. Particulars: Table 6; 100 μM; expressed as in Table 2; average of 3 experiments.
For the next assay, the target named is FGF-2 (Homo sapiens, UniProt P09038). As to the kind of experiment: Competition with biotinylated TS3R domain for binding to immobilized FGF-2 (DELFIA). Particulars: for % TS3R/FGF-2 binding vs. control: control = 100% binding, average of 3 experiments. An excerpt: For the evaluation of the binding of the compounds of the invention to FGF-2, the test described in G. Colombo et al. J. Biol. Chem., 285: 8733, 2010 has been used. In this reference the binding test has been used to assay the binding of compound sm27 to FGF-2. Specifically, the test allows to evaluate the capability of the compounds under examination to compete with the biotinylated TS3R domain (the recombinant part of Thrombospondine 1 (TSP-1) containing the bond sequence for FGF-2), for the binding to FGF-2 immobilized on a plastic support.
In detail, FGF-2 (0.1 μg) has been immobilized on 96 well plates (DELFIA microtitration plates, Perkin Elmer) leaving into contact for one night at 4° C. by using known techniques. After saturation of the non specific sites with 1% BSA, the compounds to be tested and then the biotinylated TS3R domain (10 nM) in PBS 1% BSA were added. After a period of incubation of 3 hours, the plate was washed and treated with Eu-Labeled Streptavidin 1:1000 and incubated again for one further hour. The amount of TS3R bound to FGF was determined with DELFIA Enhancement Solution, measuring the resolved fluorescence (Victor, PerkinElmer).
The test was carried out on the compounds of examples 2, 4, 8, 10 and 12. The used concentrations were respectively of 10 and 100 μM. The obtained results are reported in Table 1 and have been expressed as inhibition percentage of the TS3R/FGF-2 binding induced by the compounds of the invention vs. the control (TS3R/FGF-2 binding in the absence of the compounds of the invention). As a reference compound sm27 was used and assayed at a concentration of 100 μM. […] The compounds of the invention in this test are as effective as sm27 at the assayed dose of 100 μM.
By using the test in vitro described in example 17 the binding to FGF-2 of the compounds (2p) and (2r) having the formulas herein below reported, has been assayed. These compounds are disclosed by G. A. Pinna et al. on Il Farmaco 58 (2003) 749-763.

In assay [3] the target is T1, FGF-2 binding to BAEC cells (Bovine Aortic Endothelial Cells) (Homo sapiens, UniProt P09038).
T1 construct: host or cells: added exogenously to BAEC (Bovine Aortic Endothelial Cells)
As to the kind of experiment: Inhibition of the binding of europium-labelled FGF-2 to endothelial cells. The class given is cell-based. The conditions noted are these: 100 μM; control = 100% binding; average of 3 experiments. The method, then: Sub-confluent BAEC cells (Bovine Aortic Endothelial Cells), in 96 well plates, were incubated with DMEM without serum for 30 minutes at 4° C. The compound of the invention to be assayed and FGF-2, labelled with europium (FGF-Eu, 10 ng/ml), were added in DMEM containing 0.15% gelatine and HEPES 25 mM. The plate was incubated for 2 hours at 4° C. After washings with cold medium, the amount of FGF-Eu bound to the cells was determined with DELFIA Enhancement Solution by measuring the time resolved fluorescence (Victor, PerkinElmer).
The compounds obtained in examples 2, 4, 8 and 10 were used at a concentration of 100 μM. As a reference the compound sm27 was used. The obtained results are reported in Table 2 and are expressed as inhibition percentage of the FGF-2 binding to endothelial cells induced by the compounds of the invention and by sm27 vs. the control (FGF-2 bond to endothelial cells in absence of inhibition). The value obtained with the control was assumed as 100% binding.
Example 18 has been repeated by using the two compounds of the prior art (2p) and (2r).

In assay [4] the test system is BAEC cells. Briefly: Inhibition of the proliferation of endothelial cells induced by FGF-2 (Crystal Violet). The class given is cell-based, Bovine. The conditions noted are these: FGF-2 5 ng/ml, 72 h. Here is the method: BAEC cells (25000/ml) in DMEM 1.5% FCS were sown in 96 well plates. After 24 h the culture medium was substituted with DMEM 0.5% FCS containing the compounds of the invention at different concentrations in the range indicated herein below, and FGF-2 (5 ng/ml) or 10% FCS, added as stimulator of the cellular proliferation. After 72 h of incubation, the cells were fixed and stained with Crystal Violet, (Sigma). The stain was then eluted by using a solution 1:1 of ethanol and sodium citrate 0.1M and the absorption of the solution determined at the wave length of 540 nm.
In this test the compounds of examples 2, 4, 8 and 10 were used. For each compound several concentrations comprised between 10 and 100 μM were prepared. The obtained results are reported in Table 3 and have been given as percent reduction of the cellular proliferation of endothelial cells in the presence of FGF-2, induced by the compounds of the invention, with respect to the control (proliferation in the presence of FGF-2 only).

Here are results for six molecules from US9181196B2, “Pharmaceutical compounds” (KEMOTECH S.r.l., priority 2013, dated 2015).

Chain of FGF-2 (P09038 143-288, species assumed): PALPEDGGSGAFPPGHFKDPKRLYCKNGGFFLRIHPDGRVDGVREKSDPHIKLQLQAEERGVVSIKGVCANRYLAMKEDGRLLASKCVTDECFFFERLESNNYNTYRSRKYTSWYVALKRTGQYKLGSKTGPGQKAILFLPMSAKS
T1 sequence (P09038 143-288): as the sequence (P09038 143-288, species assumed) above

As for `CN(CCCNC(=O)c1nn(-c2ccccc2)c2c1Cc1ccccc1-2)CCCNC(=O)c1nn(-c2ccccc2)c2c1Cc1ccccc1-2` [Compound (2p), reference compound], the “Inhibition of the angiogenesis induced by FGF-2 (aorta ring), in words” value in assay [1] is given as “do not result active in inhibiting the angiogenesis induced by FGF-2”. In assay [1] (100 μM), the “Sprouting area (% vs. control)” value was 95.5 ± 5%. Also, the “Cell proliferation (% vs. control)” value in the assay on BAEC cells [2] was found to be 97 ± 4%. On FGF-2 (100 μM), the “Binding to FGF-2 / inhibition of TS3R/FGF-2 binding, in words” value is “do not show any significant binding to FGF-2” and the “% TS3R/FGF-2 binding vs. control” value is reported as 96 ± 3%.

With `CN(CCCNC(=O)c1nn(-c2ccc(Cl)cc2Cl)c2c1Cc1ccccc1-2)CCCNC(=O)c1nn(-c2ccc(Cl)cc2Cl)c2c1Cc1ccccc1-2` [Compound (2r), reference compound], in assay [1], the “Inhibition of the angiogenesis induced by FGF-2 (aorta ring), in words” value is “do not result active in inhibiting the angiogenesis induced by FGF-2”. The “Sprouting area (% vs. control)” value in assay [1] (100 μM) is given as 91.1 ± 6%. Besides, the “Cell proliferation (% vs. control)” value with BAEC cells [2] was found to be 94 ± 6%. At FGF-2 (100 μM), the “Binding to FGF-2 / inhibition of TS3R/FGF-2 binding, in words” value is reported as “do not show any significant binding to FGF-2” and the “% TS3R/FGF-2 binding vs. control” value is on record as 98 ± 6%.

Consider `O=C(NCCCNC(=O)c1nn(-c2ccc(Cl)cc2Cl)c2c1Cc1cc(S(=O)(=O)O)sc1-2)c1nn(-c2ccc(Cl)cc2Cl)c2c1Cc1cc(S(=O)(=O)O)sc1-2` [Example 2, 3,3′-(propane-1,3-diylbis(azanediyl))bis(oxomethylene)bis(1-(2,4-dichlorophenyl)-1,4-dihydro-thieno[3′,2′:4,5]cyclopenta[1,2-c]pyrazole-6-sulfonic acid)], for which the entries for the “Sprouting area (% vs. control)” value in assay [1] (50 μM), in assay [1] (75 μM) and in assay [1] (100 μM) were 43.9 ± 9%, 10.5 ± 5% and 1.8 ± 0.7%, respectively. For the same molecule, the “% TS3R/FGF-2 binding vs. control” value at FGF-2 (10 μM) came out at 25 ± 3%; at FGF-2 (100 μM), 13 ± 3%. Besides, the “Inhibition of the FGF-2 binding to endothelial cells (% binding FGF-2/endothelial cells vs. control)” value in assay [3] is listed as 22 ± 3%. Moreover, the “Cell proliferation (% vs. control)” value with BAEC cells [4] (10 μM, control = 100%) was found to be 90 ± 3%; in the assay with BAEC cells [4] (50 μM, control = 100%), 20 ± 4%; with BAEC cells [4] (100 μM) it was 8 ± 3%.

Take `O=C(NCCCCCCNC(=O)c1nn(-c2ccc(Cl)cc2Cl)c2c1Cc1cc(S(=O)(=O)O)sc1-2)c1nn(-c2ccc(Cl)cc2Cl)c2c1Cc1cc(S(=O)(=O)O)sc1-2` [Example 4, 3,3′-(hexane-1,6-diylbis(azanediyl))bis(oxomethylene)bis(1-(2,4-dichlorophenyl)-1,4-dihydro-thieno[3′,2′:4,5]cyclopenta[1,2-c]pyrazole-6-sulfonic acid)]: the “Sprouting area (% vs. control)” value in assay [1] (75 μM) is listed as 21.0 ± 5%; in assay [1] (100 μM), 15.8 ± 4%. The “% TS3R/FGF-2 binding vs. control” value on FGF-2 (10 μM) is on record as 40 ± 2%; at FGF-2 (100 μM), 20 ± 1%. In assay [3], the “Inhibition of the FGF-2 binding to endothelial cells (% binding FGF-2/endothelial cells vs. control)” value was found to be 30 ± 3%. The “Cell proliferation (% vs. control)” value in the assay on BAEC cells [4] (10 μM, control = 100%) is 92 ± 4%; in the assay on BAEC cells [4] (50 μM, control = 100%), 70 ± 6%; in the assay with BAEC cells [4] (100 μM), 30 ± 7%.

For the molecule `Cc1ccc(Cn2nc(C(=O)NCCCCCCNC(=O)c3nn(Cc4ccc(C)cc4)c4c3Cc3cc(S(=O)(=O)O)sc3-4)c3c2-c2sc(S(=O)(=O)O)cc2C3)cc1` [Example 8, 3,3′-(hexane-1,6-diylbis(azanediyl))bis(oxomethylene)bis(1-(4-methylbenzyl)-1,4-dihydro-thieno[3′,2′:4,5]cyclopenta[1,2-c]pyrazole-6-sulfonic acid)], the entries for the “% TS3R/FGF-2 binding vs. control” value on FGF-2 (10 μM) and on FGF-2 (100 μM) were 61 ± 5% and 25 ± 4%, respectively. For the same molecule, in assay [3], the “Inhibition of the FGF-2 binding to endothelial cells (% binding FGF-2/endothelial cells vs. control)” value stood at 28 ± 4%. For the same molecule, the “Cell proliferation (% vs. control)” value in the assay on BAEC cells [4] (10 μM, control = 100%) was 95 ± 2%; in the assay on BAEC cells [4] (50 μM, control = 100%) it was 80 ± 4%; with BAEC cells [4] (100 μM) it was 36 ± 5%.

In the case of `O=C(Nc1ccc2cc(S(=O)(=O)O)cc(O)c2c1)Nc1ccc2cc(S(=O)(=O)O)cc(O)c2c1` [sm27, reference compound], the “Sprouting area (% vs. control)” value in assay [1] (100 μM) was 44.0 ± 8%. The “% TS3R/FGF-2 binding vs. control” value at FGF-2 (100 μM) was 17 ± 5%. Also, the “Inhibition of the FGF-2 binding to endothelial cells (% binding FGF-2/endothelial cells vs. control)” value in assay [3] came to 40 ± 2%. In the assay with BAEC cells [4] (100 μM), the “Cell proliferation (% vs. control)” value was determined as 60 ± 6%.
